TGI data for 6 compounds are collected here from PubChem BioAssay (NCI).

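Each compound was tested at five concentrations against cells in 96-well plates for 48 hours. TGI marks complete inhibition of growth.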

Test systems include M14 melanoma; 786-0 renal; HCC-2998 colon; NCI-H23 lung; CAKI-1 renal; PC-3 prostate; OVCAR-4 ovarian; OVCAR-3 ovarian; RXF 393 renal; MDA-MB-231 breast; UACC-62 melanoma; T-47D breast; BT-549 breast; HT29 colon; SF-539 CNS; SN12C renal; UACC-257 melanoma; SK-OV-3 ovarian; NCI-H460 lung; SK-MEL-28 melanoma.
Experiment in all cases: DTP human tumour cell line panel, 48 h

As a reminder, the TGI is the concentration giving total growth inhibition. As to `COc1cccc2cc(C(=O)NC34CC5CC(CC(C5)C3)C4)c(=N)oc12`, the TGI with M14 melanoma, in the assay on 786-0 renal, in the assay with HCC-2998 colon, with NCI-H23 lung, in the assay on CAKI-1 renal and in the assay on PC-3 prostate was above 100 µM throughout. In addition, the total growth inhibition concentration (TGI) in the assay on OVCAR-4 ovarian is above 100 µM; in the assay with OVCAR-3 ovarian, above 73.2 µM; in the assay with RXF 393 renal it was above 79.9 µM; in the assay with MDA-MB-231 breast, above 100 µM; in the assay on UACC-62 melanoma it was above 100 µM; in the assay on T-47D breast it was above 74.4 µM. Further, the TGI in the assay on BT-549 breast was above 100 µM; in the assay on HT29 colon, above 100 µM; with SF-539 CNS, above 56.1 µM; in the assay with SN12C renal it was above 100 µM; in the assay with UACC-257 melanoma, above 100 µM; in the assay on SK-OV-3 ovarian, above 100 µM. Also, the TGI with NCI-H460 lung and in the assay on SK-MEL-28 melanoma was above 100 µM in each case.
`COC(=O)CNC(=O)CCC(C)[C@H]1CCC2C3C(C[C@H](OC(C)=O)[C@@]21C)[C@@]1(C)CCC2(C[C@H]1C[C@H]3OC(C)=O)OOC1(CCCCC1)OO2` (stereo not given in full): the TGI with M14 melanoma stood at 8.28 µM; in the assay on 786-0 renal, 3.48 µM; in the assay on HCC-2998 colon, 5.98 µM; in the assay on NCI-H23 lung, 3.64 µM; with CAKI-1 renal it was 3.78 µM; in the assay on PC-3 prostate it was 6.29 µM. For the same compound, the concentration for total growth inhibition (TGI) is 3.66 µM with OVCAR-4 ovarian; 3.77 µM with OVCAR-3 ovarian; 4.23 µM in the assay on RXF 393 renal; 3.48 µM in the assay with MDA-MB-231 breast; 21.7 µM in the assay on UACC-62 melanoma; 5.03 µM with T-47D breast. For the same compound, the TGI with BT-549 breast worked out at 3.9 µM; in the assay with HT29 colon, 7.44 µM; with SF-539 CNS it was 3.75 µM; in the assay with SN12C renal, 3.17 µM; with UACC-257 melanoma, 20.1 µM; in the assay on SK-OV-3 ovarian, 25 µM. Also, the concentration for total growth inhibition (TGI) in the assay on NCI-H460 lung was 3.63 µM; with SK-MEL-28 melanoma it was 22.1 µM.
With `CC(CC[C@@]1(O)OC2C[C@H]3[C@@H]4CC[C@H]5CC(OC6OC(CO)C(OC7OC(CO)C(O)C(OC8OCC(O)C(O)C8O)C7OC7OC(CO)C(O)C(O)C7O)C(O)C6O)[C@H](O)CC5(C)[C@H]4CCC3(C)C2[C@@H]1C)COC1OC(CO)C(O)C(O)C1O` (stereo not given in full), the TGI with M14 melanoma is above 50 µM; in the assay with 786-0 renal it was 21.8 µM; in the assay on HCC-2998 colon it was 34.2 µM; in the assay with NCI-H23 lung it was 15.9 µM; with CAKI-1 renal, 43.8 µM; with PC-3 prostate it was above 50 µM. In addition, the TGI with OVCAR-4 ovarian is 36.9 µM; in the assay with OVCAR-3 ovarian, 23.1 µM; with RXF 393 renal, 17.2 µM; with MDA-MB-231 breast it was above 50 µM; in the assay on UACC-62 melanoma, 45.6 µM; in the assay with T-47D breast, 34.6 µM. Besides, the TGI in the assay on BT-549 breast is 6.64 µM; in the assay on HT29 colon, 33.4 µM; with SF-539 CNS it was 10.7 µM; in the assay with SN12C renal, 19.6 µM; in the assay with UACC-257 melanoma it was 48.2 µM; with SK-OV-3 ovarian, 43.3 µM. The TGI with NCI-H460 lung is 10.2 µM; with SK-MEL-28 melanoma it was above 50 µM.
As to `C=CC[C@]1(C2=NC(C)(C)CO2)c2ccccc2-c2ccccc2[C@H]1C(C)=O`, the TGI with M14 melanoma was 21.7 µM; with 786-0 renal, 24.9 µM; in the assay with HCC-2998 colon, 20.7 µM; in the assay with NCI-H23 lung, above 45.3 µM; with CAKI-1 renal, above 55 µM; in the assay on PC-3 prostate, 27.7 µM. Besides, the TGI was above 69 µM in the assay with OVCAR-4 ovarian; 9.08 µM in the assay with OVCAR-3 ovarian; 15.8 µM with RXF 393 renal; 30 µM in the assay with MDA-MB-231 breast; 19.2 µM in the assay with UACC-62 melanoma; above 69.5 µM with T-47D breast. Besides, the TGI in the assay with BT-549 breast is 37.1 µM; in the assay on HT29 colon it was 17.3 µM; with SF-539 CNS, 25.1 µM; in the assay on SN12C renal, 30.8 µM; in the assay with UACC-257 melanoma, 24 µM; with SK-OV-3 ovarian, above 54.9 µM. For the same compound, the TGI in the assay on NCI-H460 lung is 19.3 µM; with SK-MEL-28 melanoma, above 54.5 µM.
On to `C[n+]1cn(-c2nc3ccccc3nc2[N-]S(=O)(=O)c2ccccc2)c2ccccc21`, for which the TGI in the assay on M14 melanoma, in the assay with 786-0 renal, with HCC-2998 colon, in the assay with NCI-H23 lung, in the assay on CAKI-1 renal and in the assay on PC-3 prostate was above 100 µM each time. The TGI in the assay with OVCAR-4 ovarian, in the assay with OVCAR-3 ovarian, in the assay with RXF 393 renal, in the assay on MDA-MB-231 breast, in the assay on UACC-62 melanoma and in the assay on T-47D breast was above 100 µM each time. The TGI in the assay on BT-549 breast, in the assay on HT29 colon, with SF-539 CNS, in the assay on SN12C renal, in the assay with UACC-257 melanoma and in the assay on SK-OV-3 ovarian was above 100 µM in each case. The concentration for total growth inhibition (TGI) with NCI-H460 lung and in the assay with SK-MEL-28 melanoma was above 100 µM each time.
With `CCNC(=S)NNC(=O)CSc1nc2ccc(I)cc2c(=O)n1Cc1ccccc1`, the total growth inhibition concentration (TGI) with M14 melanoma is above 100 µM; in the assay with 786-0 renal it was above 100 µM; with HCC-2998 colon it was above 85.7 µM; in the assay with NCI-H23 lung it was above 100 µM; in the assay with CAKI-1 renal, 1.65 µM; with PC-3 prostate, above 100 µM. Moreover, the TGI is above 95.5 µM in the assay on OVCAR-4 ovarian; above 100 µM in the assay with OVCAR-3 ovarian; above 81 µM in the assay on RXF 393 renal; above 100 µM in the assay on MDA-MB-231 breast; above 100 µM in the assay with UACC-62 melanoma; above 100 µM with T-47D breast. Also, the TGI with BT-549 breast is above 100 µM; with HT29 colon, above 100 µM; with SF-539 CNS it was above 100 µM; with SN12C renal it was above 100 µM; in the assay with UACC-257 melanoma, above 87.1 µM; in the assay on SK-OV-3 ovarian, above 100 µM. The TGI in the assay with NCI-H460 lung and in the assay on SK-MEL-28 melanoma was above 100 µM throughout.
